Experimental data as given in patent publication US9290544B2, “Methods for making and using molecular switches involving circular permutation” (priority 2004, dated 2016).
“And” between values parts separate entries of the source, which are not always exact repeats. Identical values can stand only once.

Assays:
[1] = Hydrolysis of cephalothin by RG-200-13 with and without 5 mM maltose; format: biochemical; conditions: substrate cephalothin 250 μM; pH 7.0, 22° C.
Protocol: (§1) A 6×His tag was added to the C-terminus of RG-200-13 (also termed “RG13” in Examples below) and the fusion was purified as previously described (Guntas and Ostermeier 2004). The protein was purified to approximately 60% purity. The kinetic constants and binding constants were determined from Eadie-Hofstee plots and Eadie plot equivalents, respectively, using a spectrophotometric assay for nitrocefin hydrolysis. Initial rates for nitrocefin hydrolysis were determined from absorbance at 486 nm monitored as a function of time. The enzyme was incubated at the assay temperature in the absence or presence of saccharide for four minutes prior to performing the assay. All assays contained 100 mM sodium phosphate buffer, pH 7.0. The dissociation constant for maltose was determined using change in velocity of nitrocefin hydrolysis as a signal.
(§2) Maltose binding had the largest effect on cephalothin (of the substrates tested), with the velocity of cephalothin hydrolysis being 32-fold higher in the presence of maltose than in its absence.

[2] = Apparent dissociation constant for maltose from initial rate of nitrocefin hydrolysis; format: binding; conditions: 25° C.
Protocol: (§3) [formula] where ΔF is the change in fluorescence intensity, ΔFmax is the difference in fluorescence between no maltose and saturating amounts of maltose and [L] is the maltose concentration. The fluorescence quenching of RG13(1329W/A96W) upon addition of maltose was insufficient to accurately determine a Kd by this method. The dissociation constant for maltose and RG13(I329W) in the presence of saturating carbenicillin (2 mM) was determined by measuring the initial rate of carbenicillin hydrolysis as a function of maltose concentration. The apparent dissociation constant in the presence of subsaturating concentrations of nitrocefin (25 μM) for all three proteins was determined by measuring the initial rate of nitrocefin hydrolysis as a function of maltose concentration.

[3] = test system: DH5α-E cells; assay: In vivo characterization: MIC of ampicillin for DH5α-E cells expressing the protein; format: cell-based, E. coli; conditions: for Minimum Inhibitory Concentration of Ampicillin: LB plates, 37° C., 20 hours
Protocol: Overnight inoculums of DH5α-E cells expressing RG13, BLA or BLA(W208G) were diluted into LB media and plated on LB plates, either in the absence or presence of 50 μM maltose, in the presence of increasing amounts of ampicillin. Ampicillin was present in the plates at the following concentrations: 0, 2, 4, 8, 16, 32, 64, 128, 256, 512, and 2000 μg/ml. Cells were plated at approximately 1000 CFU (no antibiotic) per plate. The plates were incubated at 37° C. for 20 hours. The minimum inhibitory concentration (MIC) was defined as the lowest ampicillin concentration at which no colonies were present, or that at which the number of colonies present was <1% of the number of colonies at the next lowest level of ampicillin.

[4] = Hydrolysis of carbenicillin by RG-200-13 with and without 5 mM maltose; format: biochemical; conditions: substrate carbenicillin 1 mM; pH 7.0, 22° C.
Protocol: as §1, §2

[5] = Hydrolysis of ampicillin by RG-200-13 with and without 5 mM maltose; format: biochemical; conditions: pH 7.0, 22° C.
Protocol: as §1, §2

[6] = Maltose affinity by intrinsic protein fluorescence; format: binding
Protocol: Maltose affinity for RG13 (in presence and absence of 10 mM carbenicillin) and RG13(1329W) (in the absence of substrate) was determined using intrinsic protein fluorescence measured on a Photon Technology QuantaMaster QM-4 spectrofluorometer. Fluorescence spectra were obtained at 25° C. at different concentrations of maltose in 50 mM sodium phosphate buffer, pH 7.0, containing 100 mM sodium chloride. The protein concentration was 50-100 nM. Excitation was at 280 nm. The quenching in fluorescence intensity at 341 nm caused by maltose was used in Eadie-Hofstee equivalent plots to determine Kd using the following equation:
as §3

[7] = 96-well colorimetric nitrocefin hydrolysis screen of lysates with or without 5 mM maltose; format: biochemical; conditions: 50 μM nitrocefin
Protocol: The naïve library was plated on LB agar plates supplemented with 200 μg/ml ampicillin and 50 mM maltose and incubated at 37° C. overnight. From these plates, 1056 colonies were picked to inoculate 1 ml LB media (supplemented with 50 μg/ml chloramphenicol and 1 mM IPTG) in 96-well format. After incubation overnight at 37′C, each culture was lysed using 0.1 ml Popculture reagent, 40 units of rLysozyme, and 2.5 units of benzonase nuclease. Lysates were centrifuged to pellet the insoluble material and the soluble fractions were assayed in 96-well format for nitrocefin hydrolysis in the presence or absence of 5 mM maltose using a colorimetric assay for nitrocefin hydrolysis (Posey et al. 2002). The assays were carried out at room temperature using the Spectramax-384 Plus microplate reader (Molecular Devices) in the presence of 100 mM sodium phosphate buffer and 50 μM nitrocefin in a 200 μl reaction volume.

[8] = Spectrophotometric nitrocefin hydrolysis assay of purified RG-200-13, 22° C.; format: biochemical; conditions: for Change in velocity of nitrocefin hydrolysis in presence of sugar: 50 μM nitrocefin; for Change in velocity of nitrocefin hydrolysis in presence of sugar / Km / kcat: pH 7.0, 22° C.
Protocol: as §1

[9] = Dissociation constant for maltose using change in velocity of nitrocefin hydrolysis as signal; conditions: 22° C.; read-out: Kd for maltose binding
Protocol: as §1

[10] = Ampicillin hydrolysis by purified RG13, 25° C.; format: biochemical; conditions: 50 μM ampicillin
Protocol: All kinetic assays were performed at 25° C. in the presence of 100 mM sodium phosphate buffer, pH 7.0. Ten μl of enzyme stock was added to 1.59 ml buffer (containing the saccharide, if desired). After incubation for 30 seconds, 0.4 ml of 5× substrate was added and the absorbance at the appropriate wavelength was recorded using the Cary50 UV-VIS spectrophotometer. The wavelength monitored was 486 nm, 240 nm, and 232 nm for nitrocefin, carbenicillin, and ampicillin respectively. From the initial rate of reaction the kinetic constants were determined using Eadie-Hofstee plots. […] The rate data was consistent with a small hysteretic effect (Brennan et al. 1994) and not substrate inhibition as preincubation of the enzyme with the substrate for one minute prevented the lag from occurring upon addition of more substrate. Therefore, the steady state parameters for nitrocefin hydrolysis in the absence of maltose were determined by measuring the rate at 1-2 minutes (well after the lag) and correcting the substrate concentration by subtracting the amount of substrate hydrolyzed. In all cases the extent of reaction at the point the rate was measured was less than 25%. In the presence of maltose, no lag was observed.

[11] = Dissociation constant for maltose from initial rate of carbenicillin hydrolysis; format: binding; conditions: 1.5 mM carbenicillin, 25° C., read-out: Kd maltose, Saturating Carbenicillin, Enzymatic assay

RG13: MBP-BLA fusion switch MBP[1-316]-BLA[227-286]-GSGGG-BLA[24-226]-S-MBP[319-370]; SEQ ID NO: 61
Fold increase in velocity of cephalothin hydrolysis with 5 mM maltose [1]: 32 fold
Kd [2]: 6.7 ± 0.03 µM
Effect of the same concentration (50 μM) of sucrose or glucose on the MIC [3]: did not affect the MIC
Increase of MIC for ampicillin in the presence of 50 μM maltose [3]: four-fold
Minimum Inhibitory Concentration of Ampicillin ([3]; 50 μM maltose): 512 µg/mL
Minimum Inhibitory Concentration of Ampicillin ([3]; No maltose): 128 µg/mL
Approximate fold increase in velocity of carbenicillin hydrolysis in the presence of 5 mM maltose [4]: ~4 fold
Approximate fold increase in velocity of ampicillin hydrolysis in the presence of 5 mM maltose ([5]; substrate ampicillin 100 μM): ~26 fold
Approximate fold increase in velocity of ampicillin hydrolysis in the presence of 5 mM maltose ([5]; substrate ampicillin 500 μM): ~10 fold
Kd ([6]; 10 mM carbenicillin, 25° C., read-out: Kd maltose, Saturating Carbenicillin, IPF): 1.3 ± 0.5 µM
Kd ([6]; intrinsic protein fluorescence, 100 mM NaCl, 50 mM NaPO4, pH 7.0, 25° C., read-out: Kd maltose, No Substrate): 5.5 µM and 5 to 6 µM
Kd ([6]; text of Example 3, read-out: Dissociation constant for maltose in the presence of saturating amounts of carbenicillin): ~1 µM
Increase of initial velocity of nitrocefin hydrolysis in the presence of maltose [7]: 17 fold
Change in velocity of nitrocefin hydrolysis in presence of sugar ([8]; Galactose 5 mM): −3%
Change in velocity of nitrocefin hydrolysis in presence of sugar ([8]; Lactose 5 mM): −4%
Change in velocity of nitrocefin hydrolysis in presence of sugar ([8]; Maltose 5 mM): +1800%
Change in velocity of nitrocefin hydrolysis in presence of sugar ([8]; Maltotetraitol 5 mM): +400%
Change in velocity of nitrocefin hydrolysis in presence of sugar ([8]; Maltotriose 5 mM): +1700%
Change in velocity of nitrocefin hydrolysis in presence of sugar ([8]; Sucrose 5 mM): −5%
Km ([8]; nitrocefin, 5 mM maltose): ~85 µM
kcat ([8]; nitrocefin, 5 mM maltose, listed as RG-200-13): ~520 s⁻¹
Km Ratio (with maltose)/(without maltose) ([8]; nitrocefin, 22° C.): ~0.26
kcat Ratio (with maltose)/(without maltose) ([8]; nitrocefin, 22° C.): ~6.5
Km ([8]; nitrocefin, no maltose): ~325 µM
kcat ([8]; nitrocefin, no maltose): ~80 s⁻¹
Change in velocity of nitrocefin hydrolysis in presence of sugar ([8]; β-cyclodextrin 3 mM): +150%
Kd [9]: ~5 µM
Rate increase with maltose [10]: 16 fold
Kd [11]: 0.9 ± 0.1 µM
